Data reported in patent US20230302131A1, “MPC INHIBITION FOR PRODUCING T-CELLS WITH A MEMORY PHENOTYPE” (UNIVERSITÉ DE LAUSANNE, priority 2020, published 2023).

Tested on: adult human CD8 T cells
Test: Adult human PBMC activation with anti-CD3/CD28 beads, T cell phenotype by flow cytometry
Assay type: cell-based
Conditions: adult PBMCs, day 9, vs DMSO
Experimental: FIG. 7: MPC inhibition during the activation and culture of adult human T cells induces a memory phenotype. (A) Experimental design. PBMCs were isolated from adult healthy volunteers and activated with anti-CD3/CD28 beads in the presence of DMSO or UK5099 (25 μM). Beads were removed at day 5 and T cell phenotype was analysed at day 9. (B) Percentage of CD8 T cells expressing the memory marker CD62L. (C) The mean fluorescent intensity of CD62L in the respective positive population. (D) Percentage of CD8 T cells expressing markers that allows their identification as stem cell memory T cells (TSCM). (E-F) Mitochonrial mass (identified by MitoGreen staining, E) and mitochondrial membrane potential (TMRM, F), measured by flow cytometry and expressed as fold change as compared to DMSO. (G) Mitochondrial membrane potential normalized for the mitochondrial mass, expressed as the ratio of […], fold change as compared to DMSO. Pooled data from 2 independant experiments. ns: non-significant, *p<0.05, **[…], ***p<0.001. Data represents mean±s.e.m.
Heparinised blood was diluted with PBS and pipetted on top of Ficoll-paque (LymphoPrep). After centrifugation at 1800 rpm for 20 minutes at room temperature, the layer of cells at the intersection, containing the PBMCs was removed, washed and resuspended at 5×10^5 cells/ml of RPMI medium containing 8% human serum (AB serum), antibiotics, 2 mM L-Glutamine, 1% non-essential amino acids, 1 mM sodium pyruvate and 50 μM β-mercaptoethanol (all Gibco). Cells were activated with Human T-activator CD3/CD28 Dynabeads at a 1 bead/cell ratio with 150 IU/ml human recombinant IL2 and DMSO or 25 μM UK5099. Throughout the culture, cells were regularly split when necessary and beads were removed at day 5. At day 9, a fraction of the cells was stained with antibodies for flow cytometry analysis or for mitochondrial analysis.

SMILES: CC(C)(O)CNc1nc(Nc2ccnc(C(F)(F)F)c2)nc(-c2cccc(C(F)(F)F)n2)n1 [AG221]
- population of CD8 T cells positive for CD62L (UK5099 25 μM): further induce
- mean fluorescent intensity of the CD62L signal in the CD62L-positive cells: increased
